Data taken from ChEMBL document CHEMBL1127890, “Syntheses of new bacteriochlorins and their antitumor activity” (1994).

Assays:
Assay type in all cases: functional
Details in all cases: route intravenous
Mus musculus [1] = assay: In vivo tumor response 3 hour after post i.v. injection at a dose of 5 mg/kg in DBA/2 mice having SMT/F tumor after 21 days
Mus musculus [2] = assay: In vivo tumor response 3 hour after post i.v. injection at a dose of 5 mg/kg in DBA/2 mice having SMT/F tumor after 30 days
Mus musculus [3] = assay: In vivo tumor response 3 hour after post i.v. injection at a dose of 5 mg/kg in DBA/2 mice having SMT/F tumor after 1-2 days
Mus musculus [4] = assay: In vivo tumor response 3 hour after post i.v. injection at a dose of 5 mg/kg in DBA/2 mice having SMT/F tumor after 7 days

Row | SMILES | Tumor response (Mus musculus [1]) | Tumor response (Mus musculus [2]) | Tumor response (Mus musculus [3]) | Tumor response (Mus musculus [4])
1 | CCOC(=O)C(N)CCCCN1C(=O)C2=C(C)c3cc4[nH]c(cc5[nH]c(cc6nc(c(c2n3)C1=O)[C@@H](CCC(=O)OC)[C@@H]6C)c(C)c5C=O)C(C)(O)C4(O)CC (some centres undefined) | 20% | 20% | 100% | 100%
2 | CCC1(O)c2cc3nc4c(c5nc(cc6[nH]c(cc([nH]2)C1(C)O)c(C=O)c6C)[C@@H](C)[C@@H]5CCC(=O)NC(CC(=O)OC(C)(C)C)C(=O)OC(C)(C)C)C(=O)OC(=O)C4=C3C (some centres undefined) | 80% | 80% | 100% | 100%
3 | CCC1(O)c2cc3nc4c(c5nc(cc6[nH]c(cc([nH]2)C1(C)O)c(C=O)c6C)[C@@H](C)[C@@H]5CCC(=O)OC)C(=O)OC(=O)C4=C3C (some centres undefined) | – | – | 0% | –
